Data published in patent publication US20150164867A1, “METHODS OF IMPROVING LONG-TERM SURVIVAL AND REDUCING HOSPITALIZATION READMISSION RATES FOR SUBJECTS SUFFERING FROM HEPATIC ENCEPHALOPATHY” (Salix Pharmaceuticals, Ltd, priority 2012, published 2015).

Tests used:
[1] = tested on: compensated cirrhotic patients with SHE; assay: Chart review of daily caloric intake in compensated cirrhotic patients with subclinical hepatic encephalopathy; type: in vivo, human
Excerpt: The medical charts were reviewed for non-hospitalized patients with compensated cirrhosis with and without the diagnosis of subclinical hepatic encephalopathy. […] All patients were reported to be at baseline Conn score Grade 0-1 HE, and employment status was identified. Information collected included; gender, age, ethnicity, weight/height, exercise and employment status, and daily calorie counts for 14 days. Daily caloric intake was registered with food consumption logs by patients and family. Normal caloric intake was considered at 1600 to 2200 calories/day depending upon dietary requirements. The daily caloric totals were conducted with the Calorie Smart calculator. […] There were 64 patients involved in the study: 29 females, 35 males, age (range 19-68), ethnicity (81% Caucasian, 8% African American, 8% Hispanic, 3% other), and mean MELD 8.5 points (range 6-13). There were no events of occult HE or hospitalizations throughout the review.

[2] = tested on: patients admitted for overt HE; assay: Chart review of hospital readmission in cirrhotic patients with overt HE; type: in vivo, human
Excerpt: The medical charts of outpatient and hospitalized patients admitted for overt HE were examined over a 137-month (about an 11.5-year) window. Information collected included gender, age, ethnicity, MELD score, post discharge HE management protocol, HE hospitalization number (frequency), time to readmission (days) and health insurance coverage. All patients suffering from infection, renal failure, gastrointestinal bleeding or […] were excluded. Group one consisted of patients discharged with lactulose (LAC) treatment. Group two consisted of patients discharged on rifaximin (RFX) treatment. Group three consisted of patients discharged on rifaximin treatment combined with lactulose treatment (RFX/LAC). […] The lactulose dose (LAC) was 30-120 cc/day, adjusted to acquire two to three loose to soft bowel movements. Time from discharge to readmission was measured. All patients were required to have a follow up visit after discharge and maintain family support and employment. Patients were broken down into compliant and non-compliant groups with outpatient follow-up. Eighty-seven (87) patients were identified as compliant, while forty-nine (49) patients were identified as non-compliant. In the compliant group, there were 51 males and 36 females, with an age range of between 32 and 68 years. The ethnic group breakdown for the compliant group was as follows: 66% Caucasian, 14% African American, 17% Hispanic and 3% other. The mean MELD score of the compliant group was 12.5 points (range: 8-17). In the non-compliant group, there were 29 males and 20 females, with an age range of between 28 and 66 years. The ethnic group breakdown for the non-compliant group was as follows: 64% Caucasian, 18% African American and 18% Hispanic. The mean MELD score of the non-compliant group was 11.5 points (range: 6-18).

[3] = tested on: patients admitted for overt HE; assay: Chart review of survival outcomes in patients admitted for overt HE; type: in vivo, human; details: for Survival Rates, One Year / Survival Rates, Six Months / Survival Rates, Three Years: overt HE patients; for Survival Rates, One Year: one year after discharge; for Survival Rates, Six Months: six months after discharge, RFX 1200 then 1100 mg/day, LAC 30-120 cc/day; for Survival Rates, Three Years: three years after discharge
Excerpt: The medical charts of outpatient and hospitalized patients admitted for overt HE were examined over a 137-month (about an 11.5-year) window. Information collected included gender, age, ethnicity, post discharge HE management protocol, HE hospitalization number (frequency) and time (days) to transplant or death. […] The lactulose dose (LAC) was 30-120 cc/day, adjusted to acquire two to three loose to soft bowel movements. Time from discharge to death or transplant was reported.
In the study, 185 patients were identified, 106 of which were males, 79 or which were females. The median age was 48.5 years (range: 28-72 years). The ethnic group breakdown was as follows: 66% Caucasian, 12% African American, 18% Hispanic, 4% Other. The mean MELD score was 18.5 points (range: 12-40).

[4] = tested on: species of Staphylococcus, Streptococcus, Enterococcus, and Enterobacteriaceae; details: in vitro data; cited from earlier work
[5] = relative to lactulose monotherapy or combined therapy

Compound	adverse effect [1]	caloric intake (in words) [1]	number of hospital readmissions ([2]; compliant and non-compliant populations, comparison of LAC, RFX, RFX/LAC groups)	Survival Rates, One Year [3] [%]	Survival Rates, Six Months [3] [%]	Survival Rates, Three Years [3] [%]	in vitro antibacterial activity [4]	frequency of hospitalizations [2, 5]	time to hospital readmission [2, 5]	short- and long-term survival ([3]; addition of rifaximin, alone or in combination with lactulose, overt HE)
OC[C@H]1O[C@@H](O[C@@H]2[C@@H](CO)OC(O)(CO)[C@H]2O)[C@H](O)[C@@H](O)[C@H]1O (mixture of isomers) [LAC, Lactulose]	bowel bloating culminating in a sensation of decreased appetite	marked decrease	highest	46	60	29				
CO[C@H]1/C=C/O[C@@]2(C)Oc3c(C)c(O)c4c(O)c(c5c(nc6cc(C)ccn65)c4c3C2=O)NC(=O)/C(C)=C\C=C\[C@H](C)[C@H](O)[C@@H](C)[C@@H](O)[C@@H](C)[C@H](OC(C)=O)[C@@H]1C [RFX, Rifaximin]		appeared to maintain daily caloric intake		63	76	51	active	less frequent	greater	improvement
